Patent US20130330756A1, “DETECTION OF BACTERIA EXHIBITING ENZYMATIC RESISTANCE TO CARBAPENEMS” (BIOMERIEUX, priority 2011, published 2013)
Like-named read-outs stand apart in the source and are kept apart here. Peptide text beside a SMILES is read from it. * marks the point of attachment. βNA = c1ccc2cc(N*)ccc2c1

Legend:
[1] = tested on: Pseudomonas IR strain; assay: Ertapenem E-test MIC, IR Pseudomonas strain; type: cell-based, Pseudomonas aeruginosa
Description: (§1) The effect of cloxacillin and PAbetaN on the MICs of the strains with ertapenem was evaluated firstly using E-test® strips in Mueller Hinton medium. […] The second test consisted in evaluating the impact of these 2 compounds on the MICs with ertapenem of 29 carbapenemases-producing strains (+1 ESBL).
(§2) Test B100904: the 19 impermeability-resistant (IR) strains belong to the following species: 10 Enterobacter aerogenes, 2 Enterobacter cloacae, 1 Citrobacter freundii, 1 Pseudomonas aeruginosa, 3 Proteus mirabilis and 2 Morganella morganii.
(§3) The E-tests were performed in Mueller-Hinton medium supplemented or not supplemented with cloxacillin and/or PAbetaN according to Table I:
(§4) 2. Test • Production for each strain of an approximately 0.5 McF suspension in a 0.85% NaCl ampule. • Seeding of the 4 media by semi-automatic swabbing. • Drying of the dishes at ambient temperature for 5 to 15 min. • Application of the ertapenem E-test® strip. • Incubation for 16 to 20 hours at 37° C.

[2] = tested on: Enterobacter IR strains; assay: Ertapenem E-test MIC, impermeability-resistant (IR) Enterobacter strains; type: cell-based, Enterobacter aerogenes, Enterobacter cloacae; details: for number of strains: >2 MIC steps impact on ertapenem MIC / number of strains: No impact on ertapenem MIC: Enterobacter IR strains, Mueller Hinton, cloxacillin 200 mg/l and/or PAbetaN 25 mg/l, vs medium without either; for MIC with ertapenem: E. aerogenes strain 9306074
Description: as §1, §2, §3, §4

[3] = tested on: Citrobacter IR strain; assay: Ertapenem E-test MIC, IR Citrobacter strain; type: cell-based, Citrobacter freundii; details: cloxacillin 200 mg/l and/or PAbetaN 25 mg/l, vs medium without either
Description: as §1, §2, §3, §4

[4] = tested on: carbapenemase-producing strains; type: cell-based
Description: as §1
(§5) Test B101001: twenty-nine carbapenemase-producing strains divided as follows: 27 Klebsiella pneumoniae strains producing class A KPC carbapenemase (KPC), and 2 strains respectively of Klebsiella pneumoniae and Citrobacter freundii which produce class-B carbapenemase (NDM-1). This test also comprised an ESBL Escherichia coli strain.
as §3, §4

[5] = tested on: Proteus IR strains; assay: Ertapenem E-test MIC, IR Proteus strains; type: cell-based, Proteus mirabilis; details: cloxacillin 200 mg/l and/or PAbetaN 25 mg/l, vs medium without either
Description: as §1, §2, §3, §4

[6] = tested on: carbapenemase-producing strains; assay: Agar dilution growth on chromogenic media with faropenem, carbapenemase-producing strains; type: cell-based
Description: (§6) Seventy-seven strains of Gram-negative bacteria, of which 71 are enterobacteria and 6 non-enterobacteria (non-fermenting bacteria), whose resistance characteristics are set out in Table IV, were tested on media containing different concentrations of faropenem and cloxacillin, with or without PAbetaN, in order to establish the sensitivity and the specificity of each formulation. The tested media are described in Table V.
(§7) The chromogenic media are divided into 120×120 square dishes.
(§8) The seeding is performed from 24-h pre-cultures at 37° C. on trypcase soy agar. For each strain, a 0.5 McF suspension in physiological water is produced. Each suspension is spot-seeded (1 to 2 μL) on each medium with the aid of a multi-point inoculator according to the Agar Dilution (AD) method. Readings are performed after 24 hours of incubation at 37° C.
(§9) An absence of bacterial growth or a number of colonies which is less than or equal to 3 are considered as corresponding to a growth inhibition. The presence of 4 colonies or more is considered to be positive growth.

[7] = tested on: Morganella IR strains; assay: Ertapenem E-test MIC, IR Morganella strains; type: cell-based, Morganella morganii; details: cloxacillin 200 mg/l and/or PAbetaN 25 mg/l, vs medium without either
Description: as §1, §2, §3, §4

[8] = tested on: class-B carbapenemase (NDM-1) producing strains; assay: Ertapenem E-test MIC, NDM-1 strains; type: cell-based, Klebsiella pneumoniae, Citrobacter freundii; details: cloxacillin 200 mg/l and/or PAbetaN 25 mg/l, vs medium without either
Description: as §1, §5, §3, §4

[9] = tested on: 19 IR strains; assay: Agar dilution growth on chromogenic media with faropenem, IR strains; type: cell-based; details: for additional IR strains inhibited: faropenem 16 mg/L
Description: as §6, §7, §8, §9

[10] = tested on: 19 impermeability-resistant (IR) strains; assay: Ertapenem E-test MIC, all 19 IR strains (TOTAL); type: cell-based; details: for number of strains: >2 MIC steps impact on ertapenem MIC / number of strains: No impact on ertapenem MIC / number of strains: ≦2 MIC steps impact on ertapenem MIC: TOTAL of 19 IR strains, cloxacillin 200 mg/l and/or PAbetaN 25 mg/l, vs medium without either
Description: as §1, §2, §3, §4

[11] = tested on: ESBL Escherichia coli strain; assay: Ertapenem E-test MIC, ESBL strain; type: cell-based; details: cloxacillin 200 mg/l and/or PAbetaN 25 mg/l, vs medium without either
Description: as §1, §5, §3, §4

[12] = tested on: class A KPC carbapenemase producing strains; assay: Ertapenem E-test MIC, KPC strains; type: cell-based, Klebsiella pneumoniae
Description: as §1, §5, §3, §4

[13] = Pseudomonas IR strain, cloxacillin 200 mg/l and/or PAbetaN 25 mg/l, vs medium without either
[14] = TOTAL (ESBL+NDM+KPC), cloxacillin 200 mg/l and/or PAbetaN 25 mg/l, vs medium without either
[15] = PAbetaN alone in Mueller Hinton
[16] = PAbetaN added to cloxacillin, against MICs with cloxacillin, 17 strains already decreased >2 steps by cloxacillin
[17] = KPC strains, cloxacillin 200 mg/l and/or PAbetaN 25 mg/l, vs medium without either

## Cc1onc(-c2ccccc2Cl)c1C(=O)N[C@@H]1C(=O)N2[C@@H]1SC(C)(C)[C@@H]2C(=O)O [CLX, cloxacillin]
[1]; [13]
  number of strains: ≦2 MIC steps impact on ertapenem MIC: 1
[2]; E. cloacae IR strain unimpacted by cloxacillin alone
  MIC with ertapenem in medium with the named additive: > 32 µg/mL
[2]
  number of strains: >2 MIC steps impact on ertapenem MIC: 11
  number of strains: No impact on ertapenem MIC: 1
[3]
  number of strains: >2 MIC steps impact on ertapenem MIC: 1
[4]; [14]
  number of strains: >2 MIC steps, positive MIC effect: 2
  number of strains: No impact on ertapenem MIC: 10
  number of strains: ≦2 MIC steps, negative MIC effect: 16
[4]; TOTAL (ESBL+NDM+KPC), cloxacillin 200 mg/l, vs medium without
  number of strains: >2 MIC steps, negative MIC effect: 1
[4]; cloxacillin
  number of carbapenemase-producing strains (NDM or KPC) with no impact on MIC with ertapenem: 9
  number of carbapenemase-producing strains with MIC slightly reduced: 16
[5]
  number of strains: >2 MIC steps impact on ertapenem MIC: 3
[6]; cloxacillin alone, at the 3 concentrations of faropenem tested
  impact on growth of carbapenemase-producing strains: little or no impact
[7]
  number of strains: >2 MIC steps impact on ertapenem MIC: 2
[8]
  number of strains: No impact on ertapenem MIC: 2
[9]; addition of 50 mg/L cloxacillin
  additional IR strains inhibited: 6
[9]; addition of 200 mg/L cloxacillin
  additional IR strains inhibited: 9
[10]
  number of strains: >2 MIC steps impact on ertapenem MIC: 17
  number of strains: No impact on ertapenem MIC: 1
  number of strains: ≦2 MIC steps impact on ertapenem MIC: 1
[10]; cloxacillin added to Mueller Hinton medium
  IR strains whose MICs with ertapenem are reduced by more than 2 concentration steps: 16/19
[11]
  number of strains: No impact on ertapenem MIC: 1
[12]
  number of strains: >2 MIC steps, positive MIC effect: 2
  number of strains: No impact on ertapenem MIC: 7
  number of strains: ≦2 MIC steps, negative MIC effect: 16
[12]; 200 ug/mL
  number of strains: >2 MIC steps, negative MIC effect: 1

## C[C@@H](O)[C@H]1C(=O)N2C(C(=O)O)=C([C@H]3CCCO3)S[C@H]12 [Faropenem, faropenem]
[9]; faropenem alone, up to 16 mg/L
  impact on growth of IR strains: little impact

## NC(N)=NCCC[C@H](NC(=O)[C@@H](N)Cc1ccccc1)C(=O)Nc1ccc2ccccc2c1 [PAbetaN, phenylalanine-arginine-beta-naphthylamide] (H-Phe-Arg-βNA)
[1]; P. aeruginosa IR strain
  effect on ertapenem MIC of adding PAbetaN in addition to cloxacillin: not affected
[1]; [13]
  number of strains: No impact on ertapenem MIC: 1
[2]; in the presence of PAbetaN alone
  MIC with ertapenem: > 32 µg/mL
[2]
  number of strains: >2 MIC steps impact on ertapenem MIC: 2
  number of strains: No impact on ertapenem MIC: 10
[3]
  number of strains: No impact on ertapenem MIC: 1
[4]; [15]
  number of strains with MIC with ertapenem slightly increased: 15
  number of strains with MIC with ertapenem very distinctly increased: 7
[4]; [14]
  number of strains: >2 MIC steps, positive MIC effect: 7
  number of strains: No impact on ertapenem MIC: 5
  number of strains: ≦2 MIC steps, negative MIC effect: 2
  number of strains: ≦2 MIC steps, positive MIC effect: 15
[5]
  number of strains: No impact on ertapenem MIC: 3
[6]; 200 mg/L cloxacillin and 8 or 16 mg/L faropenem
  detection sensitivity with vs without PAbetaN: does not change
[6]; 8 or 16 mg/L faropenem with 50 or 100 mg/L cloxacillin
  detection sensitivity with vs without PAbetaN: greater
[7]
  number of strains: No impact on ertapenem MIC: 2
[8]
  number of strains: No impact on ertapenem MIC: 2
[10]; [16]
  number of IR strains unimpacted: 1
  number of IR strains with MICs decreased by two additional MIC steps: 7
  number of IR strains with less significantly decreased MICs (≦2 MIC steps): 5
[10]; PAbetaN alone
  impact of PAbetaN alone on ertapenem MICs of the majority of the IR strains: no impact
[10]
  number of strains: >2 MIC steps impact on ertapenem MIC: 2
  number of strains: No impact on ertapenem MIC: 17
  number of strains: ≦2 MIC steps impact on ertapenem MIC: 0
[11]
  number of strains: ≦2 MIC steps, positive MIC effect: 1
[12]; [17]
  number of strains: >2 MIC steps, positive MIC effect: 7
  number of strains: No impact on ertapenem MIC: 3
  number of strains: ≦2 MIC steps, negative MIC effect: 2
  number of strains: ≦2 MIC steps, positive MIC effect: 14

## C[C@@H](O)[C@H]1C(=O)N2C(C(=O)O)=C(S[C@@H]3CN[C@H](C(=O)Nc4cccc(C(=O)O)c4)C3)[C@H](C)[C@H]12 [ertapenem]
[2]; without PAbetaN
  MIC with ertapenem: 6 µg/mL
